From US10517889B2, “Modulators of SMAD7 expression” (Ionis Pharmaceuticals, Inc., priority 2017, dated 2019)
Values joined by “and” are separate entries in the source; they are usually repeats but may differ in a detail not shown here. Identical values can stand only once. Strand notation (5' to 3'): a small letter for the sugar, then the base; units joined by * are phosphorothioate-linked, units joined directly phosphodiester-linked; [ ] holds rarer units or linkages, { } end groups; capitals alone tell only the bases. e = 2'-O-(2-methoxyethyl) (MOE); [5mC] = 5-methylcytosine; d = 2'-deoxy (DNA)

Columns and labels:
[1] = tested on: human SMAD7 mRNA; assay: Dose-dependent inhibition of human SMAD7 mRNA expression in Hep3B cells (Example 3, Study 1 and 2); assay type: cell-based; conditions: electroporation; for % inhibition of SMAD7 mRNA expression: approximately 16 hours; for IC50: Study 1 (312.5-20000 nM)
In short: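 Hep3B cells, 20,000 per well, electroporated with antisense oligonucleotide at 0.31, 1.25, 5.00 or 20.00 μM (first series) or 0.74, 2.22, 6.67 or 20.00 μM (second series). After ~16 h, SMAD7 mRNA measured by RT-qPCR (RTS5062), normalised to RIBOGREEN total RNA. Percent inhibition vs untreated cells; IC50 derived.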

[2] = tested on: human SMAD7 mRNA; assay: Antisense inhibition of human SMAD7 mRNA expression in Hep3B cells by 5-10-5 MOE gapmers, single concentration, electroporation, RT-PCR (Example 1, Study 1 and 2); assay type: cell-based
In short: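 Readout is percent SMAD7 mRNA inhibition versus untreated cells, measured by qRT-PCR (RTS5062) and corrected for total RNA by RIBOGREEN. Oligonucleotide, 5,000 nM or 15,000 nM, was delivered by electroporation into Hep3B cells at 20,000 per well. RNA was collected about 24 h later.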

[3] = 312.5 nM, Study 1, relative to untreated control cells
[4] = Study 2, electroporation with 15,000 nM antisense oligonucleotide, 5-10-5 MOE gapmers targeting SEQ ID NO: 1 and 2
[5] = electroporation, 15,000 nM antisense oligonucleotide (Study 2), 5-10-5 MOE gapmers targeting SEQ ID NO: 1 and 2
[6] = electroporation with 15,000 nM antisense oligonucleotide (Study 2), 5-10-5 MOE gapmers targeting SEQ ID NO: 1 and 2
[7] = electroporation, 5,000 nM, approximately 24 hours, relative to untreated control cells, gapmers targeting SEQ ID NO: 1 and 2

Row | Substance | % inhibition of SMAD7 mRNA expression [1, 3] [%] | % inhibition of SMAD7 mRNA expression ([1]; 1250.0 nM, Study 1) [%] | % inhibition of SMAD7 mRNA expression ([1]; 5000.0 nM, Study 1) [%] | % inhibition of SMAD7 mRNA expression ([1]; 20000.0 nM, Study 1) [%] | IC50 [1] | % Inhibition [2, 4] [%] | % inhibition of SMAD7 mRNA expression [2, 5] [%] | % inhibition of SMAD7 mRNA expression [2, 6] [%] | % inhibition of SMAD7 mRNA expression [2, 7] [%] | % inhibition of SMAD7 mRNA expression [2, 4] [%] | % Inhibition of SMAD7 mRNA [2, 6] [%]
1 | 771900 (antisense eA*eT*eG*e[5mC]*e[5mC]*d[5mC]*dA*d[5mC]*d[5mC]*dA*dG*dT*d[5mC]*dT*dT*e[5mC]*e[5mC]*eT*eG*eA) [compound 771900] | 0 | 11 | 8 | 29 | > 20 µM | 32 |  |  |  |  | 
2 | 771794 (antisense eG*eA*eA*eG*e[5mC]*dA*dA*dG*dT*d[5mC]*dA*d[5mC]*dT*dG*d[5mC]*e[5mC]*eT*eT*e[5mC]*eT) [compound 771794] | 0 | 0 | 27 | 41 | > 20 µM |  | 68 |  |  |  | 
3 | 771788 (antisense e[5mC]*e[5mC]*eA*eA*e[5mC]*dT*d[5mC]*dT*dG*dA*dA*d[5mC]*dG*dG*dA*eA*eA*eG*eA*eA) [compound 771788] | 1 | 0 | 0 | 0 | > 20 µM | 30 |  |  |  |  | 
4 | 771610 (antisense eA*e[5mC]*e[5mC]*eT*eG*dA*dT*dG*dT*d[5mC]*dA*d[5mC]*d[5mC]*dA*dG*eG*eG*e[5mC]*eA*eG) [compound 771610] | 0 | 0 | 37 | 38 | > 20 µM |  |  | 52 |  |  | 
5 | 771439 (eG*eG*e[5mC]*eT*eG*d[5mC]*dG*d[5mC]*dG*d[5mC]*d[5mC]*dG*dG*d[5mC]*dG*eG*eG*e[5mC]*eG*e[5mC]; antisense) [compound 771439] | 0 | 24 | 49 | 55 | 9 µM | 48 |  |  |  |  | 
6 | 771937 (antisense eT*e[5mC]*e[5mC]*eA*eG*dT*dG*d[5mC]*dT*dT*dG*dT*dG*d[5mC]*dA*eT*eG*eT*eG*e[5mC]) [compound 771937] | 0 | 0 | 4 | 41 | > 20 µM |  | 52 |  |  |  | 
7 | 771795 (antisense e[5mC]*eG*eT*e[5mC]*eT*dG*d[5mC]*dG*dG*d[5mC]*dA*dA*dA*dA*d[5mC]*e[5mC]*e[5mC]*eA*e[5mC]*e[5mC]) [compound 771795] | 9 | 22 | 51 | 58 | 8 µM | 59 |  |  | 53 |  | 
8 | 771636 (antisense e[5mC]*e[5mC]*eT*eT*eG*dG*dG*dT*dT*dA*dT*dG*dA*d[5mC]*dG*eG*eA*e[5mC]*e[5mC]*eA) [compound 771636] |  |  |  |  | > 20 µM and 16 µM |  |  |  |  | 0 | 
9 | 771705 (antisense eA*eA*eT*eG*e[5mC]*d[5mC]*d[5mC]*dT*dT*dT*dG*dA*dG*dT*dT*eT*e[5mC]*e[5mC]*e[5mC]*e[5mC]) [compound 771705] | 0 | 0 | 0 | 9 |  |  | 52 |  |  |  | 
10 | 771891 (antisense e[5mC]*eT*e[5mC]*e[5mC]*e[5mC]*dA*dA*dG*d[5mC]*d[5mC]*dT*dA*d[5mC]*dA*dT*eA*eT*eT*eT*e[5mC]) [compound 771891] | 0 | 0 | 10 | 33 | > 20 µM | 56 |  |  | 65 |  | 
11 | 771663 (antisense eT*eT*e[5mC]*e[5mC]*eA*dA*dT*dG*dA*dG*dA*dA*dT*dG*d[5mC]*eT*eT*e[5mC]*eT*e[5mC]) [compound 771663] | 10 | 24 | 43 | 56 | 11 µM |  |  |  |  | 56 | 
12 | 771849 (antisense e[5mC]*eT*eA*eG*eG*d[5mC]*dT*dG*dG*dT*d[5mC]*dA*d[5mC]*dT*dT*e[5mC]*e[5mC]*eA*e[5mC]*eT) [compound 771849] | 25 | 0 | 10 | 35 | > 20 µM |  | 66 |  |  |  | 
13 | 771441 (e[5mC]*eG*eA*eG*eG*dG*d[5mC]*dG*dG*d[5mC]*dT*dG*d[5mC]*dG*d[5mC]*eA*eG*eG*e[5mC]*eT; antisense) [compound 771441] | 0 | 5 | 45 | 64 | 9 µM |  | 10 |  |  |  | 60
14 | 771632 (antisense eA*eA*eT*e[5mC]*e[5mC]*dT*dT*d[5mC]*dT*dT*dG*dG*dA*dG*dG*eG*eA*eA*eG*eG) [compound 771632] | 6 | 6 | 46 | 64 | 9 µM |  |  | 31 |  |  | 54
15 | 771574 (antisense e[5mC]*eG*e[5mC]*eT*eT*dG*dG*dG*dA*d[5mC]*dT*dG*d[5mC]*dA*dA*eA*e[5mC]*e[5mC]*eT*e[5mC]) [compound 771574] | 0 | 5 | 36 | 58 | 13 µM |  |  |  |  | 66 | 
16 | 771782 (antisense eT*eA*eG*eG*eA*d[5mC]*dT*dG*dG*dA*dA*dG*dA*dG*d[5mC]*eT*eT*eT*eG*eG) [compound 771782] | 0 | 9 | 27 | 38 | > 20 µM | 50 |  |  |  |  | 
17 | 771715 (antisense eA*eG*eT*e[5mC]*eT*d[5mC]*d[5mC]*dG*dA*dG*dT*dT*dA*dT*d[5mC]*e[5mC]*e[5mC]*e[5mC]*eA*eT) [compound 771715] | 7 | 18 | 42 | 49 | 17 µM | 67 |  |  | 68 |  | 
18 | 771444 (eA*eG*e[5mC]*e[5mC]*eT*d[5mC]*dT*dT*dG*dA*d[5mC]*dT*dT*d[5mC]*d[5mC]*eG*eA*eG*eG*eA; antisense) [compound 771444] | 0 | 0 | 9 | 29 | > 20 µM | 67 |  |  | 65 |  | 
